For the series the following is noted: amide bond; 22-membered ring; HATU/DIEA; NMP; 68.9 mM; 140.0 °C; 2 steps.

Consider “8-ethyl-10,18,30-trimethyl-7,20-dioxo-7,8,11,12,13,14,15,20,21,28,29,30,31,32-tetradecahydro-benzo[4,5]imidazo[2,1-b]benzo[4,5]imidazo[1,2-i]dipyrazolo[5,1-m:4′,3′-t][1,3,6,9,11,14]hexaazacyclodocosine-3,24-dicarboxamide”, for which the ring closure, yield after HPLC came out at 4.56%.

The record behind these values is patent publication US10189820.
